US8703172B2, “Sphingolipids for improvement of the composition of the intestinal flora” (Nederlandse Organizatie voor …, priority 2003, dated 2014)
Converted amounts (≈) assume the structure as drawn. “Also recorded” adds a separate entry of the source.

Columns and labels:
Salmonella enteritidis = assay: MIC on agar plates (TSA); assay type: cell-based; conditions: TSA agar plate, aerobic, 48 hours at 30° C.
Pseudomonas aeruginosa = assay: MIC on agar plates (TSA); assay type: cell-based; conditions: TSA agar plate, aerobic, 48 hours at 30° C.
[1] = tested on: Bifidobacterium adolescentis; assay: MIC on agar plates (RCBA); assay type: cell-based; conditions: RCBA agar plate, anaerobic, 72 hours at 30° C.
Bifidobacterium spp. = assay: MIC on agar plates (RCBA); assay type: cell-based; conditions: RCBA agar plate, anaerobic, 72 hours at 30° C.
Fusobacterium nucleatum = assay: MIC on agar plates (RCBA); assay type: cell-based; conditions: RCBA agar plate, anaerobic, 72 hours at 30° C.
Bacteroides fragilis = assay: MIC on agar plates (RCBA); assay type: cell-based; conditions: RCBA agar plate, anaerobic, 72 hours at 30° C.
Clostridium perfringens = assay: microbe, parasite or virus in culture; assay type: cell-based; conditions: 72 h, read-out: MIC, C. perfringens
Clostridium difficile [2] = assay: MIC on agar plates (RCBA); assay type: cell-based; conditions: Clostridioides difficile; RCBA agar plate, anaerobic, 72 hours at 30° C.
Clostridium spp. = assay: MIC on agar plates (RCBA); assay type: cell-based
Gram-positive bacteria = assay: Antimicrobial activity on agar plates, summary for Gram-positive bacteria; assay type: cell-based
Clostridium difficile [3] = assay: Survival in liquid ileum medium; assay type: cell-based; conditions: within 200 minutes
[4] = tested on: Lactobacillus acidophilus; assay: Antimicrobial activity in small intestine model TIM-1; assay type: cell-based; conditions: 20 μg/ml of sphingolipid; lumen samples plated on Rogosa agar
Clostridium difficile [5] = assay: as above; assay type: cell-based; conditions: 20 μg/ml of sphingolipid; lumen samples plated on Clostridium difficile agar
[6] = assay type: in vitro ADME
Experimental: (§1) Because the sphingolipids need to be transported together with the food to the small and large intestines to be able to be active there, the transport of phytosphingosine and sphinganine in the stomach and small intestine model TIM-1 was tested. Also, the transport of phytosphingosine in a fistulated pig was tested after the animal had been fed with feed containing phytosphingosine (1 wt. %). In a fistulated pig, the small intestine is uncoupled from the large intestine so that the digested feed at the end of the small intestine can be collected.
To investigate whether sphingolipids from the food are transported through the small intestine without being absorbed or being chemically or enzymatically modified in the small intestine, phytosphingosine and sphinganine were mixed in a standard Tim-1 food and exposed to a TIM-1 treatment. Of each sphingolipid, 5 mg per 100 grams of food (0.005 wt. %) in the food were tested. After starting the TIM-1 digestion processes in the TIM-1 stomach, at the fixed times, lumen samples of 100 grams were taken. Also, dialysate samples were taken from the material which was transported through the semi-permeable TIM-1 membrane. The dialysate samples varied between 1428 and 1122 grams. […] Next to the samples, the exposure time in minutes is given.

[7] = in vivo
Experimental: as §1
To investigate in an in vivo system whether sphingolipids from the food do actually arrive in the large intestine and are not prematurely absorbed or metabolized, pig basic feed to which phytosphingosine (1 wt. %) was added was fed to a fistulated pig.
The feed was prepared by mixing a solution of phytosphingosine in ethanol with the feed and drying it in vacuo. Every hour, the intestinal content (chymus) at the end of the small intestine was separately collected and frozen dry. The dry intestinal contents were then extracted with chloroform/methanol (2:1, v/v). The extracts were then filtered over glass wool and evaporated under a nitrogen flow. The residues were examined for the presence of phytosphingosine, sphingosine, sphinganine and sphingomyelin by means of LC-MS.

Clostridium difficile [8] = assay: Antimicrobial activity in TIM-2 large intestine model; assay type: cell-based
Bifidobacterium = assay: as above; assay type: cell-based
Bacteroides = assay: as above; assay type: cell-based
Enterococcus = assay: as above; assay type: cell-based
Lactobacillus = assay: as above; assay type: cell-based
Enterobacteriaceae = assay: as above; assay type: cell-based
Listeria monocytogenes = assay: MIC on agar plates (TSA)
[9] = tested on: Streptococcus suis type 2; assay: MIC on agar plates (TSA)
Bacillus cereus = assay: MIC on agar plates (TSA)
Leuconostoc carnosum = assay: MIC on agar plates (MRSA)
Lactobacillus sake = assay: MIC on agar plates (MRSA)
[10] = tested on: Lactobacillus acidophilus; assay: MIC on agar plates (MRSA)
Lactobacillus casei = assay: MIC on agar plates (MRSA)
Enterococcus hirae = assay: MIC on agar plates (MRSA)
[11] = tested on: Lactobacillus acidophilus; assay: Survival in liquid ileum medium; conditions: within 200 minutes
[12] = tested on: sulfite-reducing Clostridium; assay: Antimicrobial activity in TIM-2 large intestine model
bacteria tested = assay: Antimicrobial activity on agar plates, summary for the bacteria tested; assay type: cell-based; conditions: agar plates
[13] = rat, in vivo; cited from earlier work
[14] = ileum medium, absence of bile, 10 and 50 μg/ml
[15] = 60 min, 5 mg per 100 grams of food
[16] = 120 min, 5 mg per 100 grams of food
[17] = 180 min, 5 mg per 100 grams of food
[18] = 240 min, 5 mg per 100 grams of food
[19] = TSA agar plate, aerobic, 48 hours at 30° C.
[20] = MRSA agar plate, anaerobic, 72 hours at 30° C.

CCCCCCCCCCCCCC[C@@H](O)[C@@H](O)[C@@H](N)CO [Phytosphingosine, phytosphingosine]
MIC (Salmonella enteritidis; Salmonella enterica, ENTERITIDIS, read-out: MIC, S. enteritidis): > 731 µg/mL
MIC (Pseudomonas aeruginosa; Pseudomonas aeruginosa, read-out: MIC, P. aeruginosa): > 731 µg/mL
MIC ([1]; Bifidobacterium adolescentis, read-out: MIC, B. adolescentis): 8 µg/mL (≈ 25.2 µM)
MIC (Bifidobacterium spp.; Bifidobacterium, read-out: MIC, Bif. spp.): 0.9 µg/mL (≈ 2.83 µM)
MIC (Fusobacterium nucleatum; Fusobacterium nucleatum, read-out: MIC, F. nucleatum): < 6.3 µg/mL
MIC (Bacteroides fragilis; Bacteroides fragilis, read-out: MIC, B. fragilis): 2.1 µg/mL (≈ 6.61 µM)
MIC (Clostridium perfringens): 5.9 µg/mL (≈ 18.6 µM)
MIC (Clostridium difficile [2]): 5.7 µg/mL (≈ 18 µM)
MIC (Clostridium spp.; Clostridium, 72 h, read-out: MIC, C. spp.): 1.1 µg/mL (≈ 3.46 µM)
Antimicrobial activity against Gram-positive bacteria (Gram-positive bacteria): killed; also recorded: strong antimicrobial activity
Killing of Clostridium difficile (Clostridium difficile [3]; [14]): virtually completely killed
Killing of Clostridium difficile (Clostridium difficile [3]; liquid cultures, 50 ppm): for the larger part killed
Antimicrobial activity against Lactobacillus acidophilus in TIM-1 [4]: no demonstrable antimicrobial activity
Antimicrobial activity against Clostridium difficile in TIM-1 (Clostridium difficile [5]): no demonstrable antimicrobial activity
Transport through the TIM-1 system [6]: transported to the large intestine to a sufficient extent
Concentration in TIM-1 sample: Dialysate ileum 0-120′ ([6]; 5 mg per 100 grams of food): 0 ng/mL
Concentration in TIM-1 sample: Dialysate ileum 120-240′ ([6]; 5 mg per 100 grams of food): 0 ng/mL
Concentration in TIM-1 sample: Dialysate jejunum 0-120′ ([6]; 5 mg per 100 grams of food): 0 ng/mL
Concentration in TIM-1 sample: Dialysate jejunum 120-240′ ([6]; 5 mg per 100 grams of food): 0 ng/mL
Concentration in TIM-1 sample: Food ([6]; 5 mg per 100 grams of food): 5190 ng/mL
Concentration in TIM-1 sample: Residue jejunum/ileum + dialysis fluid ([6]; 5 mg per 100 grams of food): 3320 ng/mL
Concentration in TIM-1 sample: Residue stomach/duodenum + dialysis fluid ([6]; 5 mg per 100 grams of food): 1030 ng/mL
Share of the amount used found in the samples (rough mass balance) ([6]; 5 mg per 100 grams of food): approx. 20%
Concentration in TIM-1 sample: Lumen ileum 60′ [6, 15]: 200 ng/mL
Concentration in TIM-1 sample: Lumen jejunum 60′ [6, 15]: 1470 ng/mL
Concentration in TIM-1 sample: Lumen ileum 120′ [6, 16]: 2230 ng/mL
Concentration in TIM-1 sample: Lumen jejunum 120′ [6, 16]: 1790 ng/mL
Concentration in TIM-1 sample: Lumen ileum 180′ [6, 17]: 2220 ng/mL
Concentration in TIM-1 sample: Lumen jejunum 180′ [6, 17]: 3410 ng/mL
Concentration in TIM-1 sample: Lumen ileum 240′ [6, 18]: 1960 ng/mL
Concentration in TIM-1 sample: Lumen jejunum 240′ [6, 18]: 4100 ng/mL
Health of the pig [7]: remained healthy
Maximum phytosphingosine in intestinal contents at the end of the small intestine ([7]; pig): 76 μg/g of dry intestinal contents
Time from which phytosphingosine leaves the small intestine ([7]; pig): from two hours after feeding
Time of the maximum after feeding ([7]; pig): 9 h
Killing of C. difficile (Clostridium difficile [8]; TIM-2, 10 μg/ml): no significant killing
Decrease of C. difficile (Clostridium difficile [8]; TIM-2, 50 μg/ml, within 12 hours): 550 fold
Selectivity of antimicrobial activity against Clostridium difficile (Clostridium difficile [8]; TIM-2 large intestine model): selective antimicrobial activity
Killing of other bacteria: Bifidobacterium (Bifidobacterium; 10 μg/ml): no significant killing
Bifidobacterium decreases by a factor of (Bifidobacterium; 50 μg/ml): 55
Killing of other bacteria: Bacteroides (Bacteroides; 10 μg/ml): no significant killing
Bacteroides decreases by a factor of (Bacteroides; 50 μg/ml): 10
Killing of other bacteria: Enterococcus (Enterococcus; 10 μg/ml): no significant killing
Enterococcus decreases by a factor of (Enterococcus; 50 μg/ml): 5
Killing of other bacteria: Lactobacillus (Lactobacillus; 10 μg/ml): no significant killing
Lactobacillus decreases by a factor of (Lactobacillus; 50 μg/ml): 24
Killing of other bacteria: Enterobacteriaceae (Enterobacteriaceae; 10 μg/ml): no significant killing
Enterobacteriaceae decrease by a factor of (Enterobacteriaceae; 50 μg/ml): 77
MIC (Listeria monocytogenes; Listeria monocytogenes, 48 h, read-out: MIC, L. monocytogenes): 6.3 µg/mL (≈ 19.8 µM)
MIC ([9]; Streptococcus suis, TYPE2, 48 h, read-out: MIC, S. suis type 2): 6.3 µg/mL (≈ 19.8 µM)
MIC (Bacillus cereus; Bacillus cereus, 48 h, read-out: MIC, B. cereus): 6.3 µg/mL (≈ 19.8 µM)
MIC (Leuconostoc carnosum; 72 h, read-out: MIC, L. carnosum): < 0.3 µg/mL
MIC (Lactobacillus sake; Latilactobacillus sakei, 72 h, read-out: MIC, L. sake): 2.2 µg/mL (≈ 6.93 µM)
MIC ([10]; Lactobacillus acidophilus, 72 h, read-out: MIC, L. acidophilus): > 36.5 µg/mL
MIC (Lactobacillus casei; Lacticaseibacillus casei, 72 h, read-out: MIC, L. casei): > 36.5 µg/mL
MIC (Enterococcus hirae; Enterococcus hirae, 72 h, read-out: MIC, E. hirae): > 36.5 µg/mL
Killing of Lactobacillus acidophilus [11, 14]: virtually completely killed
Killing of Lactobacillus acidophilus ([11]; liquid cultures, 50 ppm): for the larger part killed
Killing of other bacteria: sulfite-reducing clostridia ([12]; 10 μg/ml): no significant killing
Sulfite-reducing Clostridium decreases by a factor of ([12]; 50 μg/ml): 36

sphingomyelin
MIC, S. enteritidis (Salmonella enteritidis): >731 µg/mL
MIC, P. aeruginosa (Pseudomonas aeruginosa): >731 µg/mL
MIC, B. adolescentis [1]: >731 µg/mL
MIC, Bif. spp. (Bifidobacterium spp.): >731 µg/mL
MIC, F. nucleatum (Fusobacterium nucleatum): >731 µg/mL
MIC, B. fragilis (Bacteroides fragilis): >731 µg/mL
MIC, C. spp. (Clostridium spp.; RCBA agar plate, anaerobic, 72 hours at 30° C.): >731 µg/mL
Inhibition of the bacteria tested (bacteria tested): do not inhibit any of the bacteria tested
Presence in the intestinal contents at the end of the small intestine ([7]; pig): larger amounts
Share of the sphingomyelin fed that is found in the feces [13]: approximately 25%
MIC, L. monocytogenes (Listeria monocytogenes; [19]): >731 µg/mL
MIC, S. suis type 2 [9, 19]: >731 µg/mL
MIC, B. cereus (Bacillus cereus; [19]): >731 µg/mL
MIC, L. carnosum (Leuconostoc carnosum; agar plate, anaerobic, 72 hours at 30° C.): >731 µg/mL
MIC, L. sake (Lactobacillus sake; anaerobic, 72 hours at 30° C.): >731 µg/mL
MIC, L. acidophilus ([10]; anaerobic, 72 hours at 30° C.): >731 µg/mL
MIC, L. casei (Lactobacillus casei; [20]): >731 µg/mL
MIC, E. hirae (Enterococcus hirae; [20]): >731 µg/mL
